Values of other authors, collected in patent US20080286234A1, “Method for treating demyelinating diseases” (priority 2007, published 2008).

Conditions: MS patients; for reduction in the rate of MS relapses / decrease in relapse rate: vs. placebo

Substance: glatiramer acetate
- effect on exacerbations in clinical trials (clinical trials): reduce the number and severity of exacerbations
- effect on new, gadolinium-enhanced brain lesions on MRI scans (clinical trials): reduce the number of new, gadolinium-enhanced brain lesions
- reduction in the rate of MS relapses / decrease in relapse rate: 30-35%

Substance: natalizumab: monoclonal antibody against integrin-(4 used to treat multiple sclerosis and Crohn's disease
- slowed the progression of disability (as measured by EDSS): 42%
- reduction in the rate of MS relapses / decrease in relapse rate: 67%
